“Also recorded” adds a separate entry of the source.
Tests used:
[1] = cited from earlier work
[2] = tested on: Penicillium caseicolum; assay: MIC and synergy index of natamycin/LAE solutions; format: cell-based
Method: (§1) In this example the influence of the synergism of combinations of LAE and natamycin in the inventive composition has been investigated.
(§2) For that purpose propylene glycol solutions with different concentrations of LAE and natamyin were prepared.
(§3) The effects of these preparations were investigated against the moulds Aspergillus niger, Penicillium caseicolum, Cladosporium cladosporioides and Rhizopus, the bacteria Escherichia coli (ATCC 8739), Salmonella typhimurium (ATCC 14028), Listeria monocytogenes (ATCC 15313), Bacillus subtilis (ATCC 6633) and the yeasts Candida albicans (ATCC 10231) and Saccharomyces cerevisiae (ATCC 9763).
(§4) The table indicates the MIC values found at different relationship between natamycin and LAE, whereby a value for natamycin: LAE 1:1 means the same concentration for both substances in the antimicrobial composition.
(§5) The interaction of the two components of the antimicrobial mixture is calculated according to the method described by Kull et al. (Kull F. C., Eisman P. C., Sylwestrowicz H. D. and Mayer R. L., Applied Microbiology, 1961; 6: 538-541). According to this method the so-called synergy index is calculated according to the following formula:
(§6) Synergy index SI=Qlae/QLAE+Qn/QN.
(§7) The elements used for the calculation of the synergy index according to the above formula have the following meaning: • Qlae=minimum inhibition concentration of LAE in the mixture of LAE and natamycin, • QLAE=minimum inhibition concentration of LAE as single antimicrobial without natamycin, • Qn=minimum inhibition concentration of natamycin in the mixture of LAE and natamycin and • QN=minimum inhibition concentration of natamycin as single antimicrobial without LAE.
(§8) All indicated symbols indicate a particular concentration leading to a particular end point, in this case the inhibition of growth of the microorganisms, so that the selected end point is in fact the minimal inhibitory concentration (MIC).
(§9) When the synergy index is 1, then there is an addition of the effects of the two components.
(§10) Qn: MIC of natamycin in the mixture of natamycin and LAE QN: MIC of natamycin alone Qlae: MIC of LAE in the mixture of natamycin and LAE QLAE: MIC of LAE alone

[3] = tested on: Cladosporium cladosporioides; assay: MIC and synergy index of natamycin/LAE solutions; format: cell-based
Method: as §1, §2, §3, §4, §5, §6, §7, §8, §9, §10

[4] = tested on: Saccharomyces cerevisiae ATCC 9763; assay: MIC and synergy index of natamycin/LAE solutions; format: cell-based
Method: as §1, §2, §3, §4, §5, §6, §7, §8, §9, §10

[5] = tested on: Rhizopus; assay: MIC and synergy index of natamycin/LAE solutions; format: cell-based
Method: as §1, §2, §3, §4, §5, §6, §7, §8, §9, §10

[6] = tested on: Aspergillus niger; assay: MIC and synergy index of natamycin/LAE solutions; format: cell-based
Method: as §1, §2, §3, §4, §5, §6, §7, §8, §9, §10

[7] = tested on: Candida albicans ATCC 10231; assay: MIC and synergy index of natamycin/LAE solutions; format: cell-based
Method: as §1, §2, §3, §4, §5, §6, §7, §8, §9, §10

[8] = Solubility of natamycin in aqueous solution with LAE; format: physicochemical; settings: 10% of LAE in water
Excerpt: According to the dose level between natamycin and LAE, the total solubility of natamycin was observed. […] This low viscosity improves the application process of the solution in the product desired to be treated.

[9] = tested on: Listeria monocytogenes ATCC 15313; assay: MIC and synergy index of natamycin/LAE solutions; format: cell-based
Method: as §1, §2, §3, §4, §5, §6, §7, §8, §9, §10
(§11) The MIC values of natamycin alone (QN) reported in tables 5 to 8 corresponds to the maximum value studied. However, the real MIC of natamycin is higher than the maximum values studied (i.e.: 1024, 2048), accordingly the real SI should be lower than the SI reported in the tables.

[10] = tested on: Bacillus subtilis ATCC 6633; assay: MIC and synergy index of natamycin/LAE solutions; format: cell-based
Method: as §1, §2, §3, §4, §5, §6, §7, §8, §9, §10, §11

[11] = tested on: Salmonella typhimurium ATCC 14028; assay: MIC and synergy index of natamycin/LAE solutions; format: cell-based
Method: as §1, §2, §3, §4, §5, §6, §7, §8, §9, §10, §11

[12] = tested on: Escherichia coli ATCC 8739; assay: MIC and synergy index of natamycin/LAE solutions; format: cell-based
Method: as §1, §2, §3, §4, §5, §6, §7, §8, §9, §10, §11

[13] = tested on: Penicillum casicolum, Rizopus, Aspergillus niger and Cladosporium cladosporioides; assay: Microbiocidal effect on inoculated cured cheese immersed in baths; format: cell-based; settings: Lauric arginate 10% bath, 5 seconds immersion; inoculated 4 log CFU/g; 22° C.; up to 15 days; separate treatments; monohydrochloride
Method: Cured cheese was purchased from a local producer. The cheese contains cow milk, sheep milk, goat milk, starters, salt, rennet. The minimum amount of fat 55%/dry weight. Minimum 45 dry weight. Lauric arginate-from […] with purity 90% Ethyl-N^α-lauroyl-L-arginate HCl. Natamycin-95% in dry weight commercially available. Inoculums is a mix of Penicillum casicolum, Rizopus, Aspergillus niger and Cladosporium cladosporioides. Spores seeded in Sabouraud Chloramphenirol agar are incubated at 25° C. for 5 days. Spores are scraped of the agar with Ringer broth and diluted in Brain Heart Infusion broth. Brain Heart Infusion broth is incubated at 25° C. for 5 days. Diluted inoculums are mixed at the desire concentration in order to have the mix inoculums. […] The cheese was sliced and cut in equal portions of 5 centimeters of diameter by 5 millimeters wide in sterile surroundings. The portions of cheese were immersed in the bath for 5 seconds. They were dripped and dried for 5 minutes in a sterile surface. After this, each sample was inoculated with Penicillum casicolum, Rizopus, Aspergillus niger and Cladosporium cladosporioides at target concentration of 4 log CFU/g. Natamycin 95% concentrations: two differently concentrated baths of natamycin were prepared: 500 ppm and 1000 ppm. Lauric arginate concentrations: four differently concentrated baths of Lauric arginate were prepared: 0.5%, 1%, 5% and 10%. […]

[14] = value is the maximum value studied, real MIC is higher

SMILES: C[C@@H]1C/C=C/C=C/C=C/C=C/[C@H](O[C@@H]2O[C@H](C)[C@@H](O)[C@H](N)[C@@H]2O)C[C@@H]2O[C@](O)(C[C@@H](O)C[C@H]3O[C@@H]3/C=C/C(=O)O1)C[C@H](O)[C@H]2C(=O)O [natamycin]
- solubility of natamycin in water [1]: 0.005-0.010 % (w/w)
- QN: MIC of natamycin alone [2]: 1
- QN: MIC of natamycin alone [3]: 1
- QN: MIC of natamycin alone [4]: 2.5
- QN: MIC of natamycin alone [5]: 4
- QN: MIC of natamycin alone [6]: 2
- QN: MIC of natamycin alone [7]: 2
- natamycin solubilised [8]: more than 1000 ppm
- QN: MIC of natamycin alone [9, 14]: > 1024
- QN: MIC of natamycin alone [10, 14]: > 2048
- QN: MIC of natamycin alone [11, 14]: > 2048
- QN: MIC of natamycin alone [12, 14]: > 1024

SMILES: CCCCCCCCCCCC(=O)N[C@@H](CCCN=C(N)N)C(=O)OCC.Cl [LAE, ethyl ester of the lauramide of the arginine monohydrochloride]
- inhibitory power / microbiocidal effect on cured cheese [13]: best treatment; also recorded: effective
- QLAE: MIC of LAE alone [2]: 256
- QLAE: MIC of LAE alone [3]: 64
- QLAE: MIC of LAE alone [4]: 32
- QLAE: MIC of LAE alone [5]: 648
- QLAE: MIC of LAE alone [6]: 128
- QLAE: MIC of LAE alone [7]: 16
- QLAE: MIC of LAE alone [9]: 32
- QLAE: MIC of LAE alone [10]: 16
- QLAE: MIC of LAE alone [11]: 32
- QLAE: MIC of LAE alone [12]: 32

From patent US20100305055A1, “COMBINATIONS OF POLYENE FUNGICIDE WITH CATIONIC SURFACTANTS” (Laboratorios Miret, S.A., priority 2007, published 2010)
